Literature values in patent US20090214511A1, “DIGESTIBLE COMPOSITIONS OF INULIN FOR MANAGING BLOOD GLUCOSE LEVELS” (priority 2008, published 2009).

Row | weight gain and edema versus non-users (randomized controlled trial, users vs non-users) | SMILES | cumulative incidence of monotherapy failure at 5 years (Type 2 diabetes, initial choice of anti-diabetic drug, 5 years) [%]
1 | – | CN(C)C(=N)N=C(N)N [metformin] | 21
2 | more weight gain and edema | CN(CCOc1ccc(CC2SC(=O)NC2=O)cc1)c1ccccn1 (centres unmarked) [rosiglitazone] | –
